Where two headings read alike, the source gives them in different places.

Data set [1] concerns p53KO HCT116 cancer cell line. Nature of the data set: GI50 against p53KO HCT116 cancer cell line. The settings on record: read-out: GI50 p53KO.
Data set [2] deals with CMV Davis strain. Nature of the data set: Anti-CMV activity in HEL cell cultures, Davis strain. As to conditions: HEL cell cultures, reduce virus plaque formation by 50%, virus input 100 PFU. It counts as cell-based, cytomegalovirus.
For data set [3], the system named is paclitaxel-resistant (PTX22) ovarian cancer cell line. Kind of data set: GI50 against paclitaxel-resistant ovarian cancer cell line PTX22. As to conditions: read-out: GI50 PTX22.
Data set [4] deals with HeLa and HEL cell cultures.
For data set [5], the system named is murine leukemia L1210, human lymphocyte CEM, and HeLa cells. Nature of the data set: Cytostatic activity against L1210, CEM and HeLa cells. The settings on record: for cytostatic activity (in words): L1210, CEM, HeLa; for IC50: range over L1210 (48 h), CEM (72 h), HeLa (96 h). It counts as cell-based. As for the experimental part: The cytostatic effects of the test compounds on murine leukemia cells (L1210), human T-lymphocyte cells (CEM) and human cervix carcinoma cells (HeLa) were evaluated as follows: an appropriate number of cells suspended in growth medium were allowed to proliferate in 200-μL-wells of 96-well-microtiter plates in the presence of variable amounts of test compounds at 37° C. in a humidified CO2-controlled atmosphere. After 48 h (L1210), 72 h (CEM) or 96 h (HeLa), the number of cells was counted in a Coulter counter. The IC50 value is defined as the concentration required to inhibit cell proliferation by 50%.

Data set [6] concerns ovarian (1A9) cancer cell line. Nature of the data set: GI50 against ovarian cancer cell line 1A9. As to conditions: read-out: GI50 1A9.
The subject of data set [7] is paclitaxel-resistant (PTX10) ovarian cancer cell line. Nature of the data set: GI50 against paclitaxel-resistant ovarian cancer cell line PTX10. The settings on record: read-out: GI50 PTX10.
Data set [8] deals with HEL cell. Kind of data set: HEL cell effects: cell morphology (minimum cytotoxic concentration). The settings on record: minimum cytotoxic concentration causing microscopically detectable alteration of cell morphology.
Data set [9] deals with vesicular stomatitis virus (VSV). It counts as cell-based. The settings on record: human cervix carcinoma HeLa cell cultures; read-out: anti-vesicular stomatitis virus (VSV) activity.
In data set [10] the test system is CMV AD-169 strain. Kind of data set: Anti-CMV activity in HEL cell cultures, AD-169 strain. In kind it is cell-based, cytomegalovirus. The settings on record: HEL cell cultures, reduce virus plaque formation by 50%, virus input 100 PFU.
Data set [11] deals with vesicular stomatitis virus (VSV). It counts as cell-based. As to conditions: human embryonic lung (HEL) fibroblast cell cultures.
Data set [12] deals with colorectal (HCT116) cancer cell line. Nature of the data set: GI50 against colorectal cancer cell line HCT116. The settings on record: read-out: GI50 HCT116.
Data set [13] deals with green monkey kidney Vero.
Data set [14] concerns feline kidney CRFK.
Data set [15] relates to canine kidney MDCK.
Data set [16] deals with HeLa.

Turning to `OC[C@H]1O[C@@H](n2cnc3c(O)nc(-n4cc(-c5ccccc5)nn4)nc32)[C@H](O)[C@@H]1O` [Compound 17, 2-[4-(Phenyl)-1,2,3-triazol-1H-yl]inosine], the GI50 – broadly, the concentration giving 50% growth inhibition – in data set [1] (p53KO HCT116, four days) is above 50 µM; in data set [3] (paclitaxel-resistant ovarian PTX22, four days) it was 4.76 µM; in data set [6] (ovarian 1A9, four days), 22.8 µM; in data set [7] (paclitaxel-resistant ovarian PTX10, four days), above 50 µM; in data set [12] (colorectal HCT116, four days), above 50 µM. The EC50 is above 50 µM in data set [2], 27 ± 2.4 µM in data set [9] and above 50 µM in data set [10]. The toxicity observed in data set [4] fell in the range of 100 to 240 µM. In [5], the “cytostatic activity (in words)” value was “most cytostatic”. Moreover, the IC50 (as a rule, the concentration that inhibits the measured activity by half) in [5] fell in the range of 34 to 124 µM. Besides, in data set [8], the “HEL cell effects cell morphology (MDC)” value turned out to be 240 μM. Besides, in data set [11], the “anti-VSV activity (in words)” value is reported as “could not be confirmed”.
Take `OC[C@H]1O[C@@H](n2cnc3c(N4CCOCC4)nc(-n4cc(-c5ccccc5)nn4)nc32)[C@@H](O)C1O` (stereo partly drawn) [Compound 34, 6-(Morpholin-4-yl)-2-(4-phenyl-1,2,3-triazol-1H-yl)-9-(β-D-ribofuranosyl)purine]: the “minimum detectable morphology-altering (cytotoxic) concentration (MCC)” value is given as 210 μM in data set [13]; 83 μM in data set [14]; 8.3 μM in data set [15]; 42 μM in [16] (HeLa (first mention)); at least 40 μM in [16] (HeLa cells). The GI50 in data set [1] (Homo sapiens, HCT-116, 96 h) was 10.4 µM; in data set [3] (96 h), 0.95 µM; in data set [6] (96 h), 0.18 µM; in data set [7] (PTX10, 96 h), 11.7 µM; in data set [12] (Homo sapiens, HCT-116, 96 h), 3.7 µM. Moreover, the EC50 is above 40 µM in data set [2] (Human betaherpesvirus 5) and above 40 µM in data set [10] (Human betaherpesvirus 5, AD169). In addition, the “cytostatic activity (in words)” value in [5] is “poorly cytostatic”. Also, the IC50 in data set [5] lay within 98 to 185 µM. Moreover, in data set [8], the “HEL cell effects cell morphology (MDC)” value is recorded as 240 μM.

For the origin of these results see patent publication US9040498B2, “1,2,3-Triazolyl purine derivatives” (RESEARCH FOUNDATION OF THE CITY UNIVERSITY OF NEW YORK, priority 2012, dated 2015).
